Data on three compounds can be found in the NIST ThermoML archive (doi:10.1016/j.fluid.2014.04.019).

The conditions of data set [1]: 101 kPa, Liquid.
Data set [2] is described as follows: xn = mol fraction of the nth substance listed. The conditions noted are these: 101 kPa, Liquid, x1 = 1.

SMILES strings stand for the structures. ± gives the expanded uncertainty stated by the source.

The term mass density denotes the mass of a sample divided by its volume. `CN(C)C=O` [dimethylformamide]: the kinematic viscosity in data set [1] (298.15 K) came to 8.15e-07 ± 5.2e-08 m2/s; in data set [1] (303.15 K) it was 7.6e-07 ± 4.9e-08 m2/s; in data set [1] (308.15 K), 7.22e-07 ± 4.7e-08 m2/s; in data set [1] (313.15 K), 6.75e-07 ± 4.4e-08 m2/s; in data set [1] (318.15 K), 6.38e-07 ± 4.2e-08 m2/s. The mass density is reported as 943.9 ± 2.4 kg/m3 in data set [1] (298.15 K); 939.6 ± 2.5 kg/m3 in data set [1] (303.15 K); 934.2 ± 2.6 kg/m3 in data set [1] (308.15 K); 929.9 ± 2.7 kg/m3 in data set [1] (313.15 K); 924.7 ± 2.8 kg/m3 in data set [1] (318.15 K).
With `OCCOCCO` [diethylene glycol], the kinematic viscosity in data set [1] (298.15 K) is 2.76e-05 ± 1.2e-06 m2/s; in data set [1] (303.15 K) it was 2.13e-05 ± 9e-07 m2/s; in data set [1] (308.15 K), 1.68e-05 ± 7e-07 m2/s; in data set [1] (313.15 K), 1.45e-05 ± 6e-07 m2/s; in data set [1] (318.15 K), 1.12e-05 ± 5e-07 m2/s. The mass density is on record as 1113 ± 2.9 kg/m3 in data set [1] (298.15 K); 1109.2 ± 3 kg/m3 in data set [1] (303.15 K); 1106.1 ± 3.1 kg/m3 in data set [1] (308.15 K); 1103 ± 3.2 kg/m3 in data set [1] (313.15 K); 1099.3 ± 3.3 kg/m3 in data set [1] (318.15 K).
Consider `CN(C)C=O` [dimethylformamide] + OCCOCCO, for which the kinematic viscosity in data set [2] (298.15 K) worked out at 8.15e-07 ± 5.2e-08 m2/s; in data set [2] (303.15 K), 7.6e-07 ± 4.9e-08 m2/s; in data set [2] (308.15 K), 7.22e-07 ± 4.7e-08 m2/s; in data set [2] (313.15 K), 6.75e-07 ± 4.4e-08 m2/s; in data set [2] (318.15 K), 6.38e-07 ± 4.2e-08 m2/s. Moreover, the mass density in data set [2] (298.15 K) stood at 943.9 ± 2.4 kg/m3; in data set [2] (303.15 K), 939.6 ± 2.5 kg/m3; in data set [2] (308.15 K) it was 934.2 ± 2.6 kg/m3; in data set [2] (313.15 K) it was 929.9 ± 2.7 kg/m3; in data set [2] (318.15 K) it was 924.7 ± 2.8 kg/m3.
